Results published in EP0394553A2, “Use of fluorine containing pyridone carboxylic acid derivatives for preparing a medicament for the treatment of HIV infections” (DAIICHI PHARMACEUTICAL CO., LTD., priority 1989, dated 1990).
Read-outs that look alike come from different tables or passages of the source.

Legend:
HIV (LAV 1) = assay: microbe, parasite or virus in culture; details: for viability at 1 µg/mL / viability at 2.5 µg/mL / viability at 5 µg/mL / viability at 10 µg/mL: Human immunodeficiency virus 1, CCRF-CEM
Outline: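 CEM cells were infected with HIV LAV 1 at MOI 0.05 and cultured with test substance at 10, 5, 2.5 or 1 mcg/ml, with medium exchanged periodically up to 30 days. Viable cell count and percentage were measured by trypan blue, and antigen-positive cells by immunofluorescence with anti-HIV antiserum, at 4–30 days. Values are means of two wells.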

in vivo = details: mouse, iv
[1] = 1 mcg/ml, 4-day addition, after 4 days
[2] = 1 mcg/ml, 4-day addition, after 7 days
[3] = 1 mcg/ml, 4-day addition, after 10 days
[4] = 1 mcg/ml, 4-day addition, after 30 days
[5] = 1 mcg/ml, continuous addition, after 4 days
[6] = 1 mcg/ml, continuous addition, after 7 days
[7] = 1 mcg/ml, continuous addition, after 10 days
[8] = 1 mcg/ml, continuous addition, after 30 days
[9] = 2.5 mcg/ml, 4-day addition, after 4 days
[10] = 2.5 mcg/ml, 4-day addition, after 7 days
[11] = 2.5 mcg/ml, 4-day addition, after 10 days
[12] = 2.5 mcg/ml, 4-day addition, after 20 days
[13] = 2.5 mcg/ml, 4-day addition, after 30 days
[14] = 2.5 mcg/ml, continuous addition, after 4 days
[15] = 2.5 mcg/ml, continuous addition, after 7 days
[16] = 2.5 mcg/ml, continuous addition, after 10 days
[17] = 2.5 mcg/ml, continuous addition, after 20 days
[18] = 2.5 mcg/ml, continuous addition, after 30 days
[19] = 5 mcg/ml, 4-day addition, after 4 days
[20] = 5 mcg/ml, 4-day addition, after 7 days
[21] = 5 mcg/ml, 4-day addition, after 10 days
[22] = 5 mcg/ml, 4-day addition, after 20 days
[23] = 5 mcg/ml, 4-day addition, after 30 days
[24] = 5 mcg/ml, continuous addition, after 4 days
[25] = 5 mcg/ml, continuous addition, after 7 days
[26] = 5 mcg/ml, continuous addition, after 10 days
[27] = 5 mcg/ml, continuous addition, after 20 days
[28] = 5 mcg/ml, continuous addition, after 30 days
[29] = 10 mcg/ml, 4-day addition, after 4 days
[30] = 10 mcg/ml, 4-day addition, after 7 days
[31] = 10 mcg/ml, 4-day addition, after 10 days
[32] = 10 mcg/ml, 4-day addition, after 20 days
[33] = 10 mcg/ml, 4-day addition, after 30 days
[34] = 10 mcg/ml, continuous addition, after 4 days
[35] = 10 mcg/ml, continuous addition, after 7 days
[36] = 10 mcg/ml, continuous addition, after 10 days
[37] = 10 mcg/ml, continuous addition, after 20 days
[38] = 10 mcg/ml, continuous addition, after 30 days

## C[C@H]1COc2c(N3CCN(C)CC3)c(F)cc3c(=O)c(C(=O)O)cn1c23 [DR-3355, (-)-(S)-9-fluoro-2,3-dihydro-3-methyl-10-(4-methyl-1-piperazinyl)-7-oxo-7H-pyrido[1,2,3-de][1,4]benzoxazine-6-carboxylic acid hemihydrate]
HIV (LAV 1); [1]
  Viable cell count: 220 × 10⁴ cells/ml
  Viral antigen-positive cell percentage: 91%
HIV (LAV 1); [2]
  Viable cell count: 71 × 10⁴ cells/ml
  Viral antigen-positive cell percentage: 61%
HIV (LAV 1); [3]
  Viable cell count: 54 × 10⁴ cells/ml
  Viral antigen-positive cell percentage: 56%
HIV (LAV 1); 1 mcg/ml, 4-day addition, after 20 days
  Viable cell count: 3 × 10⁴ cells/ml
HIV (LAV 1); [4]
  Viable cell count: 68 × 10⁴ cells/ml
  Viral antigen-positive cell percentage: 16%
HIV (LAV 1); [5]
  Viable cell count: 190 × 10⁴ cells/ml
  Viral antigen-positive cell percentage: 88%
HIV (LAV 1); [6]
  Viable cell count: 65 × 10⁴ cells/ml
  Viral antigen-positive cell percentage: 52%
HIV (LAV 1); [7]
  Viable cell count: 110 × 10⁴ cells/ml
  Viral antigen-positive cell percentage: 43%
HIV (LAV 1); 1 mcg/ml, continuous addition, after 20 days
  Viable cell count: 11 × 10⁴ cells/ml
HIV (LAV 1); [8]
  Viable cell count: 360 × 10⁴ cells/ml
  Viral antigen-positive cell percentage: 15%
HIV (LAV 1); [9]
  Viable cell count: 190 × 10⁴ cells/ml
  Viral antigen-positive cell percentage: 88%
HIV (LAV 1); [10]
  Viable cell count: 76 × 10⁴ cells/ml
  Viral antigen-positive cell percentage: 53%
HIV (LAV 1); [11]
  Viable cell count: 280 × 10⁴ cells/ml
  Viral antigen-positive cell percentage: 44%
HIV (LAV 1); [12]
  Viable cell count: 230 × 10⁴ cells/ml
  Viral antigen-positive cell percentage: 30%
HIV (LAV 1); [13]
  Viable cell count: 130 × 10⁴ cells/ml
  Viral antigen-positive cell percentage: 10%
HIV (LAV 1); [14]
  Viable cell count: 210 × 10⁴ cells/ml
  Viral antigen-positive cell percentage: 87%
HIV (LAV 1); [15]
  Viable cell count: 53 × 10⁴ cells/ml
  Viral antigen-positive cell percentage: 51%
HIV (LAV 1); [16]
  Viable cell count: 290 × 10⁴ cells/ml
  Viral antigen-positive cell percentage: 25%
HIV (LAV 1); [17]
  Viable cell count: 390 × 10⁴ cells/ml
  Viral antigen-positive cell percentage: 35%
HIV (LAV 1); [18]
  Viable cell count: 270 × 10⁴ cells/ml
  Viral antigen-positive cell percentage: 11%
HIV (LAV 1); [19]
  Viable cell count: 190 × 10⁴ cells/ml
  Viral antigen-positive cell percentage: 90%
HIV (LAV 1); [20]
  Viable cell count: 78 × 10⁴ cells/ml
  Viral antigen-positive cell percentage: 59%
HIV (LAV 1); [21]
  Viable cell count: 320 × 10⁴ cells/ml
  Viral antigen-positive cell percentage: 33%
HIV (LAV 1); [22]
  Viable cell count: 190 × 10⁴ cells/ml
  Viral antigen-positive cell percentage: 36%
HIV (LAV 1); [23]
  Viable cell count: 360 × 10⁴ cells/ml
  Viral antigen-positive cell percentage: 2%
HIV (LAV 1); [24]
  Viable cell count: 160 × 10⁴ cells/ml
  Viral antigen-positive cell percentage: 87%
HIV (LAV 1); [25]
  Viable cell count: 51 × 10⁴ cells/ml
  Viral antigen-positive cell percentage: 53%
HIV (LAV 1); [26]
  Viable cell count: 260 × 10⁴ cells/ml
  Viral antigen-positive cell percentage: 37%
HIV (LAV 1); [27]
  Viable cell count: 320 × 10⁴ cells/ml
  Viral antigen-positive cell percentage: 29%
HIV (LAV 1); [28]
  Viable cell count: 210 × 10⁴ cells/ml
  Viral antigen-positive cell percentage: 4%
HIV (LAV 1); [29]
  Viable cell count: 170 × 10⁴ cells/ml
  Viral antigen-positive cell percentage: 88%
HIV (LAV 1); [30]
  Viable cell count: 50 × 10⁴ cells/ml
  Viral antigen-positive cell percentage: 57%
HIV (LAV 1); [31]
  Viable cell count: 280 × 10⁴ cells/ml
  Viral antigen-positive cell percentage: 31%
HIV (LAV 1); [32]
  Viable cell count: 230 × 10⁴ cells/ml
  Viral antigen-positive cell percentage: 19%
HIV (LAV 1); [33]
  Viable cell count: 320 × 10⁴ cells/ml
  Viral antigen-positive cell percentage: ≦1%
HIV (LAV 1); [34]
  Viable cell count: 160 × 10⁴ cells/ml
  Viral antigen-positive cell percentage: 89%
HIV (LAV 1); [35]
  Viable cell count: 43 × 10⁴ cells/ml
  Viral antigen-positive cell percentage: 55%
HIV (LAV 1); [36]
  Viable cell count: 220 × 10⁴ cells/ml
  Viral antigen-positive cell percentage: 31%
HIV (LAV 1); [37]
  Viable cell count: 260 × 10⁴ cells/ml
  Viral antigen-positive cell percentage: 21%
HIV (LAV 1); [38]
  Viable cell count: 260 × 10⁴ cells/ml
  Viral antigen-positive cell percentage: 4%
HIV (LAV 1); 96 h, read-out: Viable cell percentage, 1 mcg/ml, 4-day addition, after 4 days
  viability at 1 µg/mL: 95%
HIV (LAV 1); 96 h, read-out: Viable cell percentage, 1 mcg/ml, continuous addition, after 4 days
  viability at 1 µg/mL: 94%
HIV (LAV 1); 96 h, read-out: Viable cell percentage, 2.5 mcg/ml, 4-day addition, after 4 days
  viability at 2.5 µg/mL: 94%
HIV (LAV 1); 96 h, read-out: Viable cell percentage, 2.5 mcg/ml, continuous addition, after 4 days
  viability at 2.5 µg/mL: 94%
HIV (LAV 1); 96 h, read-out: Viable cell percentage, 5 mcg/ml, 4-day addition, after 4 days
  viability at 5 µg/mL: 91%
HIV (LAV 1); 96 h, read-out: Viable cell percentage, 5 mcg/ml, continuous addition, after 4 days
  viability at 5 µg/mL: 89%
HIV (LAV 1); 96 h, read-out: Viable cell percentage, 10 mcg/ml, 4-day addition, after 4 days
  viability at 10 µg/mL: 92%
HIV (LAV 1); 96 h, read-out: Viable cell percentage, 10 mcg/ml, continuous addition, after 4 days
  viability at 10 µg/mL: 91%
HIV (LAV 1); 168 h, read-out: Viable cell percentage, 1 mcg/ml, continuous addition, after 7 days
  viability at 1 µg/mL: 69%
HIV (LAV 1); 168 h, read-out: Viable cell percentage, 2.5 mcg/ml, continuous addition, after 7 days
  viability at 2.5 µg/mL: 68%
HIV (LAV 1); 168 h, read-out: Viable cell percentage, 5 mcg/ml, continuous addition, after 7 days
  viability at 5 µg/mL: 66%
HIV (LAV 1); 168 h, read-out: Viable cell percentage, 10 mcg/ml, continuous addition, after 7 days
  viability at 10 µg/mL: 75%
HIV (LAV 1); 240 h, read-out: Viable cell percentage, 1 mcg/ml, continuous addition, after 10 days
  viability at 1 µg/mL: 61%
HIV (LAV 1); 240 h, read-out: Viable cell percentage, 2.5 mcg/ml, continuous addition, after 10 days
  viability at 2.5 µg/mL: 94%
HIV (LAV 1); 240 h, read-out: Viable cell percentage, 5 mcg/ml, continuous addition, after 10 days
  viability at 5 µg/mL: 95%
HIV (LAV 1); 240 h, read-out: Viable cell percentage, 10 mcg/ml, continuous addition, after 10 days
  viability at 10 µg/mL: 92%
HIV (LAV 1); 480 h, read-out: Viable cell percentage, 1 mcg/ml, continuous addition, after 20 days
  viability at 1 µg/mL: 50%
HIV (LAV 1); 480 h, read-out: Viable cell percentage, 2.5 mcg/ml, continuous addition, after 20 days
  viability at 2.5 µg/mL: 95%
HIV (LAV 1); 480 h, read-out: Viable cell percentage, 5 mcg/ml, continuous addition, after 20 days
  viability at 5 µg/mL: 89%
HIV (LAV 1); 480 h, read-out: Viable cell percentage, 10 mcg/ml, continuous addition, after 20 days
  viability at 10 µg/mL: 87%
HIV (LAV 1); read-out: Viable cell percentage, 1 mcg/ml, 4-day addition, after 7 days
  viability at 1 µg/mL: 70%
HIV (LAV 1); read-out: Viable cell percentage, 1 mcg/ml, 4-day addition, after 10 days
  viability at 1 µg/mL: 61%
HIV (LAV 1); read-out: Viable cell percentage, 1 mcg/ml, 4-day addition, after 20 days
  viability at 1 µg/mL: 20%
HIV (LAV 1); read-out: Viable cell percentage, 1 mcg/ml, 4-day addition, after 30 days
  viability at 1 µg/mL: 98%
HIV (LAV 1); read-out: Viable cell percentage, 1 mcg/ml, continuous addition, after 30 days
  viability at 1 µg/mL: 98%
HIV (LAV 1); read-out: Viable cell percentage, 2.5 mcg/ml, 4-day addition, after 7 days
  viability at 2.5 µg/mL: 80%
HIV (LAV 1); read-out: Viable cell percentage, 2.5 mcg/ml, 4-day addition, after 10 days
  viability at 2.5 µg/mL: 92%
HIV (LAV 1); read-out: Viable cell percentage, 2.5 mcg/ml, 4-day addition, after 20 days
  viability at 2.5 µg/mL: 87%
HIV (LAV 1); read-out: Viable cell percentage, 2.5 mcg/ml, 4-day addition, after 30 days
  viability at 2.5 µg/mL: 83%
HIV (LAV 1); read-out: Viable cell percentage, 2.5 mcg/ml, continuous addition, after 30 days
  viability at 2.5 µg/mL: 88%
HIV (LAV 1); read-out: Viable cell percentage, 5 mcg/ml, 4-day addition, after 7 days
  viability at 5 µg/mL: 76%
HIV (LAV 1); read-out: Viable cell percentage, 5 mcg/ml, 4-day addition, after 10 days
  viability at 5 µg/mL: 95%
HIV (LAV 1); read-out: Viable cell percentage, 5 mcg/ml, 4-day addition, after 20 days
  viability at 5 µg/mL: 87%
HIV (LAV 1); read-out: Viable cell percentage, 5 mcg/ml, 4-day addition, after 30 days
  viability at 5 µg/mL: 92%
HIV (LAV 1); read-out: Viable cell percentage, 5 mcg/ml, continuous addition, after 30 days
  viability at 5 µg/mL: 75%
HIV (LAV 1); read-out: Viable cell percentage, 10 mcg/ml, 4-day addition, after 7 days
  viability at 10 µg/mL: 68%
HIV (LAV 1); read-out: Viable cell percentage, 10 mcg/ml, 4-day addition, after 10 days
  viability at 10 µg/mL: 94%
HIV (LAV 1); read-out: Viable cell percentage, 10 mcg/ml, 4-day addition, after 20 days
  viability at 10 µg/mL: 85%
HIV (LAV 1); read-out: Viable cell percentage, 10 mcg/ml, 4-day addition, after 30 days
  viability at 10 µg/mL: 92%
HIV (LAV 1); read-out: Viable cell percentage, 10 mcg/ml, continuous addition, after 30 days
  viability at 10 µg/mL: 83%
In vivo
  LD50: ≥ 200 mg/kg
